Measurements: patent US6608103B2, “Inhibitor for neovasculation, cell multiplication, lumen formation and FGF” (Fuji Chemical Industry Co., Ltd., priority 2001, dated 2003)
“Also recorded” adds a separate entry of the source.

How the values were obtained:
Type in all cases: cell-based, bovine
[1] = system: BAEC; experiment: Effects of tocotrienols on multiplication of BAEC, MTT assay; settings: for Absorbance: MTT; for inhibitory action against cell multiplication: Table 1
Method: Normal bovine aortic endothelial cells (BAEC) were manufactured by Cell Systems Co., and purchased through Dainippon Seiyaku Co., Ltd.
A cell suspension was prepared by adding the cells to MEM (Sigma Chemical Co.) containing 10 v/v (%) fetal bovine serum (FBS), 20 IU/ml penicillin and 20 IU/ml streptomycin (MEM+10% FBS) in a concentration of 1×10^5 cells/ml, and cultured in a 5% CO2 incubator at 37° C. by using a 60 mm dish coated with type I collagen with subculturing every 2 to 3 days.
Each of the above samples was added to MEM containing 2% (v/v) FBS, 20 IU/ml penicillin and 20 IU/ml streptomycin (MEM+2% FBS), and subjected to testing.
Effects of tocotrienols on the multiplication of BAEC were examined by using MTT assay.
(§1) Each one microplate was taken out after 0, 24, 48 or 96 hours from placing the culture medium containing a sample. In the case of the microplate taken out after 96 hours, the culture medium was once changed after 48 hours. 3 mg/ml MTT solution PBS (−) was put in each well in an amount of 50 μl/well, and incubated for 3 hours in a CO2 incubator. After filling each well with phosphate buffered saline (PBS(−)), liquid in each well was evacuated, and isopropyl alcohol containing 0.04 mol/l HCL was put in each well in an amount of 200 μl/well. The microplates were allowed to stand overnight in a dark place, and then, absorbance at 595 nm and 655 nm (dual) was measured by a microplate reader.
In the case of Control group A, no sample was added.

[2] = system: BAEC; experiment: Inhibitory action against FGF activity, MTT assay on BAEC with FGF 20 ng/ml; design: key to Cell Multiplication: ↑: Accelerated; /: Tendency to increase; No change; ↓: Inhibited; ↓↓: Strongly inhibited; settings: for Absorbance: MTT; for Cell Multiplication: summary
Method: The fibroblast growth factor sample was prepared by dissolving a commercial FGF (Sigma Chemical Co.) in MEM (Sigma Chemical Co.)
as §1
In the case of Control group B, no sample was added.

[3] = system: BAEC; experiment: Neovasculation / lumen formation of BAEC between two layers of type I collagen gel
Method: BAEC was cultured between two layers of type I collagen gel, and a lumen-like netting structure formed therebetween was evaluated.
(§2) Eight parts by volume of “Vitrogen Collagen” (Collagen Co.), 1 part by volume of 0.1 N NaOH and 1 part by volume of ×10 MEM (GIBCO BRL) were placed in a tube, and mixed quickly in an ice bath. The culture solution was removed by suction, and 0.5 ml/well of the above mixture containing collagen was pipetted into each well. The microplate was placed in a CO2 incubator for about 30 minutes to gelatinize it. 1.5 ml of a medium (MEM | 2% FBS) containing a sample was added, and continued to incubate while changing the medium every second day.
(§3) The variation of cells were observed by a microscope by taking a photograph, and lumen formation was evaluated by counting the number of branches of cells forming lumen.
The inhibition test against lumen formation was carried out in the same manner as Example 15, except that α-tocopherol was substituted for DL-α-tocotrienol.

[4] = system: BAEC; experiment: Inhibition against lumen formation induced by FGF; design: key to Lumen Formation: ↑: Accelerated; /: Tendency to increase; No change; ↓: Inhibited; ↓↓: Strongly inhibited; settings: for Lumen Formation: summary
Method: as §2, §3
The test was carried out similar to Examples 12-14, wherein FGF was added together with each tocotrienol. In the case of Control group E, no sample was added. […]

[5] = system: BAEC; experiment: Cell multiplication of BAEC, survival rate of cells using WST-1; settings: for Survival Rate of Cells (% of control): 24 hours, WST-1; for IC50: determined from the graph of FIG. 1 (abscissa μM), read-out: median growth inhibition concentration (IC50)
Method: Influence of tocotrienols on cell multiplication of BAEC was examined in various concentrations. The cell multiplication was evaluated by determining the survival rate of cells using WST-1, which makes it possible to conduct high sensitivity measurement, instead of conventional MTT.
As a blank, the culture medium alone was incubated without adding cells. […] The microplate was taken out after 24 hours from placing the culture medium containing a sample. 10 μl/well of WST-1 solution was added to each well, and incubated in a CO2 incubator. After 3 hours, absorbance at 450 nm and 655 nm (dual) of each well was measured by a microplate reader.
The samples employed were DL-α-tocotrienol, DL-γ-tocotrienol and DL-δ-tocotrienol. In the case of Control group I, no sample was added.
The survival rate of cells was determined by the following formula:
Survival Rate of Cells=(S−B)/(C−B)×100(%)
The results of Table 10 were made in a graph shown in FIG. 1, and median growth inhibition concentration (IC50) was determined from the graph. In the figure, the numbers on the ordinate indicate the survival rate of cells (% of control), and the numbers on the abscissa indicate concentration (μM). ● is DL-α-tocotrienol, ▪ is DL-β-tocotrienol, Δ is DL-γ-tocotrienol, and X is DL-δ-tocotrienol, respectively.

[6] = 0 hr, FGF 20 ng/ml + sample 10 μM
[7] = 24 hrs, FGF 20 ng/ml + sample 10 μM
[8] = 48 hrs, FGF 20 ng/ml + sample 10 μM
[9] = 96 hrs, FGF 20 ng/ml + sample 10 μM
[10] = FGF (20 ng/ml) + sample (10 μM)
[11] = FGF (20 ng/ml) + sample (100 μM)

SMILES	Absorbance ([1]; 0 hr, sample 10 μM)	Absorbance ([1]; 24 hrs, sample 10 μM)	Absorbance ([1]; 48 hrs, sample 10 μM)	Absorbance ([1]; 96 hrs, sample 10 μM)	Absorbance [2, 6]	Absorbance [2, 7]	Absorbance [2, 8]	Absorbance [2, 9]	Cell Multiplication [2, 10]	inhibition of lumen formation ([3]; 10 μM)	Number of Cells Forming Lumen/cm^2 ([3]; Table 4, 10 μM)	inhibition of lumen formation induced by FGF ([4]; 10 μM + FGF 20 ng/ml)	Number of Cells Forming Lumen/cm^2 ([4]; sample 10 μM + FGF 20 ng/ml)	Lumen Formation [4, 10]	IC50 [5] [µM]	inhibitory action against cell multiplication ([1]; 10 μM)	Survival Rate of Cells (% of control) ([5]; 2 μM)	Survival Rate of Cells (% of control) ([5]; 4 μM)	Survival Rate of Cells (% of control) ([5]; 6 μM)	Survival Rate of Cells (% of control) ([5]; 8 μM)	further results
CC(C)=CCC/C(C)=C/CC/C(C)=C/CC[C@]1(C)CCc2c(C)c(O)c(C)c(C)c2O1 (racemic) [DL-α-Tocotrienol, α-tocotrienol]	0.090 ± 0.003	0.141 ± 0.008	0.271 ± 0.010	0.382 ± 0.014	0.044 ± 0.002	0.096 ± 0.004	0.290 ± 0.010	0.328 ± 0.018	↑	equivalent to the control group	39.25 ± 1.84 /cm^2	inhibited the lumen formation induced by FGF	25.25 ± 1.55 /cm^2	→	38	–	–	–	–	–	inhibition of lumen formation ([3]; 50 μM): completely inhibited formation; Number of Cells Forming Lumen/cm^2 ([3]; Table 4, 30 μM): 31.75 ± 1.25 /cm^2; Number of Cells Forming Lumen/cm^2 ([3]; Table 4, 50 μM): 0.00 ± 0.00 /cm^2; Number of Cells Forming Lumen/cm^2 ([3]; Table 4, 100 μM): 39.25 ± 2.17 /cm^2; Survival Rate of Cells (% of control) ([5]; 25 μM): 111.0 ± 6.8 % of control; Survival Rate of Cells (% of control) ([5]; 30 μM): 115.8 ± 9.2 % of control; Survival Rate of Cells (% of control) ([5]; 35 μM): 67.3 ± 11.6 % of control; Survival Rate of Cells (% of control) ([5]; 40 μM): 39.1 ± 12.7 % of control; Survival Rate of Cells (% of control) ([5]; 45 μM): 6.9 ± 5.9 % of control
CC(C)=CCC/C(C)=C/CC/C(C)=C/CC[C@]1(C)CCc2c(C)c(O)cc(C)c2O1 (racemic) [DL-β-Tocotrienol, β-tocotrienol]	0.084 ± 0.002	0.029 ± 0.004	0.39 ± 0.007	0.011 ± 0.002	0.042 ± 0.002	0.036 ± 0.003	0.055 ± 0.005	0.039 ± 0.004	↓↓	–	–	inhibited the lumen formation completely; also recorded: exhibit inhibitory action against lumen formation	0.00 ± 0.00 /cm^2	↓↓	6.5	remarkable inhibitory action	89.4 ± 5.1 % of control	97.8 ± 7.9 % of control	57.1 ± 5.9 % of control	5.6 ± 5.4 % of control	Survival Rate of Cells (% of control) ([5]; 10 μM): 0.0 ± 0.0 % of control
CC(C)=CCC/C(C)=C/CC/C(C)=C/CC[C@]1(C)CCc2cc(O)cc(C)c2O1 (racemic) [DL-δ-Tocotrienol, δ-tocotrienol]	0.103 ± 0.001	0.004 ± 0.000	0.003 ± 0.000	0.002 ± 0.000	0.040 ± 0.002	0.003 ± 0.000	0.003 ± 0.000	0.003 ± 0.000	↓↓	inhibited lumen formation completely	0.00 ± 0.00 /cm^2	inhibited the lumen formation completely; also recorded: exhibit inhibitory action against lumen formation	0.00 ± 0.00 /cm^2	↓↓	5.5	remarkable inhibitory action	93.0 ± 6.8 % of control	109.4 ± 8.0 % of control	0.9 ± 1.3 % of control	5.8 ± 4.5 % of control	Survival Rate of Cells (% of control) ([5]; 10 μM): 0.4 ± 0.9 % of control
Cc1c(C)c2c(c(C)c1O)CC[C@@](C)(CCC[C@H](C)CCC[C@H](C)CCCC(C)C)O2 [α-Tocopherol, α-tocopherol, reference compound]	–	–	–	–	–	–	–	–	–	–	–	–	–	–	–	–	–	–	–	–	inhibitory action against cell multiplication ([1]; 100 μM): does not exhibit inhibitory action; Absorbance ([1]; 0 hr, sample 100 μM): 0.092 ± 0.003; Absorbance ([1]; 24 hrs, sample 100 μM): 0.140 ± 0.003; Absorbance ([1]; 48 hrs, sample 100 μM): 0.268 ± 0.004; Absorbance ([1]; 96 hrs, sample 100 μM): 0.520 ± 0.012; Absorbance ([2]; 0 hr, FGF 20 ng/ml + sample 100 μM): 0.045 ± 0.002; Absorbance ([2]; 24 hrs, FGF 20 ng/ml + sample 100 μM): 0.080 ± 0.004; Absorbance ([2]; 48 hrs, FGF 20 ng/ml + sample 100 μM): 0.242 ± 0.014; Absorbance ([2]; 96 hrs, FGF 20 ng/ml + sample 100 μM): 0.360 ± 0.020; Cell Multiplication [2, 11]: ↑; inhibition of lumen formation ([3]; 100 μM): did not inhibit lumen formation; inhibition of lumen formation induced by FGF ([4]; 100 μM + FGF 20 ng/ml): not found; Number of Cells Forming Lumen/cm^2 ([4]; sample 100 μM + FGF 20 ng/ml): 25.25 ± 2.10 /cm^2; Lumen Formation [4, 11]: →
